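Grown in 96-well plates, cells were treated for 48 hours with each compound at five concentrations. Insufficient inhibition: endpoint recorded as highest concentration tested. GI50 = concentration required for 50% inhibition of growth.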 Active and inactive are the calls of the source. Rule as the data show it: active = GI50 up to about 1.1 µM and inactive = higher.

These results are taken from ChEMBL document CHEMBL1201862, “PubChem BioAssay data set” (2004).

Among the test systems are OVCAR-8; OVCAR-5; DU-145; KM12; IGROV-1; OVCAR-3; CCRF-CEM; A498; UO-31; Malme-3M; EKVX; SK-OV-3; CAKI-1; TK-10; SK-MEL-28; COLO 205; MOLT-4; SF-539; UACC-62; SF-295.
What all share (assay): inhibition of tumour cell growth, NCI panel, 48 h

On to `O=C(O)c1ccc(Nc2nc3cc(C(F)(F)F)ccc3n3cccc23)cc1`, for which the GI50 was 49.5 µM (inactive) with OVCAR-8; 40.8 µM (inactive) in the assay on OVCAR-5; 49.2 µM (inactive) with DU-145; 19.8 µM (inactive) with KM12; 29.5 µM (inactive) in the assay with IGROV-1; 30.2 µM (inactive) with OVCAR-3. Besides, the GI50 was 16.5 µM (inactive) with CCRF-CEM; 42 µM (inactive) in the assay with A498; > 100 µM (inactive) in the assay on UO-31; 84.7 µM (inactive) with Malme-3M; 62.4 µM (inactive) in the assay with EKVX; 40.1 µM (inactive) in the assay on SK-OV-3. In addition, the GI50 was 47.3 µM (inactive) with CAKI-1; 28.2 µM (inactive) in the assay on TK-10; 46.2 µM (inactive) with SK-MEL-28; 22.5 µM (inactive) in the assay on COLO 205; 25.1 µM (inactive) in the assay on MOLT-4; 23.3 µM (inactive) in the assay on SF-539. Moreover, the GI50 with UACC-62 was 23.9 µM (inactive); in the assay with SF-295, 27.2 µM (inactive).

For the compound `CC/C(N)=N\NC(=O)OC(C)(C)C`, the GI50 in the assay on OVCAR-8, in the assay with OVCAR-5, with DU-145, in the assay with KM12, with IGROV-1 and in the assay with OVCAR-3 was > 100 µM (inactive) in each case. Also, the GI50 in the assay on CCRF-CEM, with A498, with UO-31, in the assay on Malme-3M, with EKVX and in the assay with SK-OV-3 was > 100 µM (inactive) throughout. Moreover, the GI50 with CAKI-1, in the assay with TK-10, with SK-MEL-28, in the assay with COLO 205, in the assay on MOLT-4 and with SF-539 was > 100 µM (inactive) each time. The GI50 in the assay on UACC-62 and with SF-295 was > 100 µM (inactive) in each case.

As for `CCCC(=O)NC(Nc1ccc(S(=O)(=O)Nc2ccc(OC)nn2)cc1)(C(F)(F)F)C(F)(F)F`, the GI50 in the assay with OVCAR-8, with OVCAR-5, with DU-145, with KM12, with IGROV-1 and in the assay on OVCAR-3 was > 100 µM (inactive) each time. In addition, the GI50 in the assay with CCRF-CEM is > 100 µM (inactive); with A498 it was 87.9 µM (inactive); with UO-31, > 100 µM (inactive); in the assay with Malme-3M it was > 100 µM (inactive); with EKVX, > 100 µM (inactive); with SK-OV-3, > 100 µM (inactive). Further, the GI50 in the assay with CAKI-1, with TK-10, in the assay with SK-MEL-28, in the assay with COLO 205, in the assay on MOLT-4 and with SF-539 was > 100 µM (inactive) in each case. Further, the GI50 in the assay on UACC-62 and with SF-295 was > 100 µM (inactive) in each case.

In the case of `COC(=O)Cc1ccc2c(c1)Sc1ccc(CC(=O)OC)cc1N2C`, the GI50 with OVCAR-8 was 34.3 µM (inactive); with OVCAR-5, > 65.5 µM (inactive); in the assay on DU-145 it was > 71.6 µM (inactive); in the assay with KM12 it was 8.07 µM (inactive); with IGROV-1, 45.8 µM (inactive); with OVCAR-3, 23.3 µM (inactive). The GI50 is 22 µM (inactive) in the assay on CCRF-CEM; 40.6 µM (inactive) with A498; 16.8 µM (inactive) with UO-31; 23.8 µM (inactive) in the assay on Malme-3M; 42 µM (inactive) in the assay on EKVX; 38.3 µM (inactive) in the assay on SK-OV-3. The GI50 with CAKI-1 was 11.6 µM (inactive); in the assay with TK-10 it was 58.3 µM (inactive); in the assay on SK-MEL-28 it was 38.3 µM (inactive); with COLO 205, 18.2 µM (inactive); in the assay on MOLT-4, 9.66 µM (inactive); in the assay on SF-539, 36.3 µM (inactive). Further, the GI50 in the assay on UACC-62 was 23.9 µM (inactive); in the assay on SF-295, 22.8 µM (inactive).

In the case of `CCN(CC)CCNc1ccc2ncn3c4ccc(OC)cc4c(=O)c1c23`, the GI50 was 0.836 µM (active) with OVCAR-8; 8.61 µM (inactive) in the assay on OVCAR-5; 8.28 µM (inactive) in the assay with DU-145; 1.78 µM (inactive) with KM12; 4.35 µM (inactive) with IGROV-1; 7.78 µM (inactive) with OVCAR-3. The GI50 was 1.34 µM (inactive) with CCRF-CEM; 6.7 µM (inactive) in the assay with A498; 1.82 µM (inactive) in the assay with UO-31; 9.12 µM (inactive) in the assay with Malme-3M; 14.9 µM (inactive) in the assay on EKVX; 7.71 µM (inactive) in the assay on SK-OV-3. Further, the GI50 in the assay on CAKI-1 was 5.65 µM (inactive); in the assay on TK-10, 10.4 µM (inactive); with SK-MEL-28, 14.3 µM (inactive); with COLO 205, 1.49 µM (inactive); in the assay on MOLT-4 it was 0.31 µM (active); in the assay on SF-539 it was 4.24 µM (inactive). The GI50 in the assay on UACC-62 was 16 µM (inactive); in the assay with SF-295 it was 2.28 µM (inactive).

Regarding `COc1ccc(-n2c(SC(CN3CCOCC3)CN3CCCC3=O)nc3ccccc3c2=O)cc1` (stereo not given), the GI50 in the assay with OVCAR-8, in the assay with OVCAR-5, with DU-145, in the assay on KM12, with IGROV-1 and in the assay with OVCAR-3 was > 100 µM (inactive) throughout. For the same compound, the GI50 with CCRF-CEM is 67.5 µM (inactive); in the assay on A498 it was > 100 µM (inactive); in the assay with UO-31 it was 35.6 µM (inactive); with Malme-3M, 91.2 µM (inactive); in the assay with EKVX it was > 100 µM (inactive); in the assay with SK-OV-3 it was > 100 µM (inactive). For the same compound, the GI50 with CAKI-1 is 43.7 µM (inactive); with TK-10, 95.1 µM (inactive); with SK-MEL-28 it was 82.6 µM (inactive); with COLO 205 it was > 100 µM (inactive); in the assay with MOLT-4, 90.8 µM (inactive); with SF-539, 58.7 µM (inactive). Moreover, the GI50 in the assay with UACC-62 and in the assay on SF-295 was > 100 µM (inactive) in each case.

Regarding `COC(=O)c1c(OC(C)=O)ccc2c1c1cc3ccccc3c(OC(C)=O)c1n2C`, the GI50 was 14.2 µM (inactive) with OVCAR-8; 53.5 µM (inactive) in the assay with OVCAR-5; 9.86 µM (inactive) with DU-145; 34.6 µM (inactive) in the assay on KM12; 2.73 µM (inactive) with IGROV-1; 23.9 µM (inactive) in the assay on OVCAR-3. Also, the GI50 in the assay with CCRF-CEM was 28.1 µM (inactive); in the assay on A498 it was 13.7 µM (inactive); in the assay with UO-31 it was 17.1 µM (inactive); in the assay with Malme-3M it was 14.4 µM (inactive); in the assay with EKVX it was 41.3 µM (inactive); with SK-OV-3 it was 6.65 µM (inactive). For the same compound, the GI50 was 11.8 µM (inactive) in the assay with CAKI-1; 28.6 µM (inactive) in the assay with TK-10; 84.5 µM (inactive) in the assay with SK-MEL-28; 21.8 µM (inactive) in the assay with COLO 205; 5.75 µM (inactive) in the assay on MOLT-4; 17.5 µM (inactive) in the assay with SF-539. The GI50 is 30.8 µM (inactive) with UACC-62 and 40.5 µM (inactive) in the assay with SF-295.

As to `O=C1CC(O)c2c(Br)sc(Br)c21` (stereo not given), the GI50 was 5.01 µM (inactive) in the assay on OVCAR-8; 21.3 µM (inactive) in the assay on OVCAR-5; 10.4 µM (inactive) in the assay with DU-145; 7.48 µM (inactive) in the assay on KM12; 15.9 µM (inactive) in the assay with IGROV-1; 4.69 µM (inactive) with OVCAR-3. The GI50 in the assay with CCRF-CEM is 0.728 µM (active); with A498, 19.9 µM (inactive); with UO-31, 2.61 µM (inactive); in the assay with Malme-3M, 17.1 µM (inactive); in the assay with EKVX it was 10.4 µM (inactive); in the assay with SK-OV-3 it was 16.6 µM (inactive). For the same compound, the GI50 with CAKI-1 is 2.07 µM (inactive); with TK-10, 3.54 µM (inactive); with SK-MEL-28, 15.7 µM (inactive); with COLO 205, 13.2 µM (inactive); with MOLT-4, 1.91 µM (inactive); in the assay on SF-539, 6.5 µM (inactive). Besides, the GI50 in the assay with UACC-62 was 13.4 µM (inactive); with SF-295, 17.1 µM (inactive).

In the case of `COc1ccc(C(C)NNC(=O)c2cc[n+]([BH2-]C#N)cc2)cc1F` (stereo not given), the GI50 in the assay on OVCAR-8, in the assay with OVCAR-5, with DU-145, in the assay with KM12, with IGROV-1 and in the assay on OVCAR-3 was > 100 µM (inactive) in each case. The GI50 in the assay on CCRF-CEM, in the assay on A498, with UO-31, in the assay with Malme-3M, in the assay on EKVX and with SK-OV-3 was > 100 µM (inactive) each time. Also, the GI50 in the assay with CAKI-1, in the assay on TK-10, with SK-MEL-28, with COLO 205, with MOLT-4 and in the assay on SF-539 was > 100 µM (inactive) in each case. Besides, the GI50 in the assay on UACC-62 and with SF-295 was > 100 µM (inactive) throughout.

In the case of `COc1cc(C2c3cc4c(cc3[C@@H](Nc3ccc5c(c3)OCCO5)C3COC(=O)[C@H]23)OCO4)cc(OC)c1O` (stereo not given in full), the GI50 was 0.693 µM (active) with OVCAR-8; 2.22 µM (inactive) in the assay on OVCAR-5; 0.743 µM (active) in the assay with DU-145; 1.85 µM (inactive) in the assay with KM12; 0.906 µM (active) in the assay on IGROV-1; 0.959 µM (active) in the assay on OVCAR-3. Further, the GI50 in the assay on CCRF-CEM was 0.138 µM (active); with A498 it was 0.19 µM (active); in the assay on UO-31 it was 0.499 µM (active); in the assay on Malme-3M it was 1.6 µM (inactive); with EKVX it was 2.87 µM (inactive); with SK-OV-3, 1.58 µM (inactive). For the same compound, the GI50 is 0.113 µM (active) in the assay on CAKI-1; 1.52 µM (inactive) with TK-10; 2.05 µM (inactive) in the assay with SK-MEL-28; 0.918 µM (active) in the assay with COLO 205; 0.035 µM (active) in the assay with MOLT-4; 0.435 µM (active) in the assay with SF-539. The GI50 in the assay with UACC-62 is 0.257 µM (active); in the assay with SF-295, 0.301 µM (active).
